These are literature values, as cited in US8617560B2, “Peptides for vaccination against human CMV” (priority 1999, dated 2013).

In the data set the test system is cytomegaloviruses. Particulars: background statement, Lutz Schneider 1991.

As for `O=C(O)P(=O)(O)O` [Foscarnet], the effect on cytomegaloviruses result is listed as “virostatic effect”.
